Where a SMILES comes first, the peptide text is derived from it. [ ]: non-standard residue; d: D form. The star is where a group is joined. NHCH2CH2OH = OCCN*; For = O=C*
Columns and labels:
[1] = cell viability/%
How it was run: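 First, library peptide stocks are diluted 250-fold in RPMI1640 with 10% heat-inactivated FBS. Next, they are mixed with P388 cells to give 1 × 10^4 cells/mL and incubated 92 h at 37 °C, 5% CO2. Finally, viability (%) is scored by WST-1 absorbance at 415 nm.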

[2] = system: Streptococcus pyogenes SSI-9; test: Antibacterial activity assay of bead-derived peptides (three concentrations); assay type: cell-based; set-up: key: +++: inhibition by the 640-fold diluted peptide solution; ++: inhibition by the 160-fold diluted solution; +: inhibition by the 40-fold diluted solution; -: no inhibition; conditions: S. pyogenes, bead-derived peptide solution, three concentrations
How it was run: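 Three stock dilutions per peptide (none, 4-fold, 16-fold in DMSO) are screened in 96-well format. The medium is blood-supplemented cation-adjusted MHB, inoculated with 2 × 10^5 CFU S. pyogenes SSI-9. Growth is read as cell precipitation at 18 h, 37 °C.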

[3] = H+/Na+ transport assay of bead-derived peptides (one-point); assay type: biochemical; set-up: key: relative activity; mean of two control wells = 1.00; conditions: bead-derived peptide solution, EYPC/EYPG LUVs;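 note: relative to parent gramicidin A activity set to 1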
How it was run: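 Values are normalized fluorescence, with Triton X-100 defining 100% and untreated LUVs 0%, and the two control wells averaging 1.00. Vesicles carried 1.0 mM pyranine and included egg yolk phosphatidylglycerol. Peptides were incubated with them 30 min at room temperature.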

Structure (SMILES) | viability [1] [%] | antibacterial activity [2] | H+/Na+ transport activity normalized against the value of 1 (1.00) [3]
CC(C)C[C@@H](NC(=O)[C@H](C)NC(=O)[C@H](NC(=O)[C@H](C)NC(=O)CNC(=O)[C@@H](NC=O)C(C)C)C(C)C)C(=O)N[C@H](C(=O)N[C@H](CC(C)C)C(=O)N[C@@H](Cc1c[nH]c2ccccc12)C(=O)N[C@@H](C(=O)N[C@@H](Cc1c[nH]c2ccccc12)C(=O)N[C@H](CC(C)C)C(=O)N[C@@H](Cc1c[nH]c2ccccc12)C(=O)N[C@H](CC(C)C)C(=O)N[C@@H](Cc1c[nH]c2ccccc12)C(=O)NCCO)[C@H](C)O)C(C)C [compound 11400] (For-VGA[dV]A[dL]V[dL]W[dT]W[dL]W[dL]W-NHCH2CH2OH) | 53 | + | 1.03
CNC(=O)C[C@@H](NC(=O)[C@H](C)NC(=O)[C@@H](CC(C)C)NC(=O)[C@H](C)NC(=O)CNC(=O)[C@@H](NC=O)C(C)C)C(=O)N[C@H](C(=O)N[C@@H](C(=O)N[C@@H](Cc1c[nH]c2ccccc12)C(=O)N[C@@H](C(=O)N[C@@H](Cc1c[nH]c2ccccc12)C(=O)N[C@H](CC(C)C)C(=O)N[C@@H](Cc1c[nH]c2ccccc12)C(=O)N[C@@H](C(=O)N[C@@H](Cc1c[nH]c2ccccc12)C(=O)NCCO)C(C)C)C(C)C)C(C)C)C(C)C [compound 8583] (For-VGA[dL]A[dD](NHMe)V[dV]W[dV]W[dL]W[dV]W-NHCH2CH2OH) | 63.4 | - | 1.15
CC(C)C[C@@H](NC(=O)[C@H](C)NC(=O)[C@H](NC(=O)[C@H](C)NC(=O)CNC(=O)[C@@H](NC=O)C(C)C)C(C)C)C(=O)N[C@H](C(=O)N[C@@H](C(=O)N[C@@H](Cc1c[nH]c2ccccc12)C(=O)N[C@H](CC(C)C)C(=O)N[C@@H](Cc1c[nH]c2ccccc12)C(=O)N[C@@H](C(=O)N[C@@H](Cc1c[nH]c2ccccc12)C(=O)N[C@H](CC(C)C)C(=O)N[C@@H](Cc1c[nH]c2ccccc12)C(=O)NCCO)[C@H](C)O)[C@H](C)O)C(C)C [compound 4195] (For-VGA[dV]A[dL]V[dT]W[dL]W[dT]W[dL]W-NHCH2CH2OH) | 90.6 | - | 1.19
CNC(=O)C[C@@H](NC(=O)[C@H](C)NC(=O)[C@H](NC(=O)[C@H](C)NC(=O)CNC(=O)[C@@H](NC=O)C(C)C)C(C)C)C(=O)N[C@H](C(=O)N[C@@H](C(=O)N[C@@H](Cc1c[nH]c2ccccc12)C(=O)N[C@H](CC(C)C)C(=O)N[C@@H](Cc1c[nH]c2ccccc12)C(=O)N[C@@H](C(=O)N[C@@H](Cc1c[nH]c2ccccc12)C(=O)N[C@H](CC(C)C)C(=O)N[C@@H](Cc1c[nH]c2ccccc12)C(=O)NCCO)C(C)C)C(C)C)C(C)C [compound 12938] (For-VGA[dV]A[dD](NHMe)V[dV]W[dL]W[dV]W[dL]W-NHCH2CH2OH) | 100 | - | 1.07
CC(C)C[C@@H](NC(=O)[C@H](C)NC(=O)CNC(=O)[C@@H](NC=O)C(C)C)C(=O)N[C@@H](C)C(=O)N[C@H](CC(C)C)C(=O)N[C@H](C(=O)N[C@@H](C(=O)N[C@@H](Cc1c[nH]c2ccccc12)C(=O)N[C@H](CC(C)C)C(=O)N[C@@H](Cc1c[nH]c2ccccc12)C(=O)N[C@H](CC(C)C)C(=O)N[C@@H](Cc1c[nH]c2ccccc12)C(=O)N[C@@H](C(=O)N[C@@H](Cc1c[nH]c2ccccc12)C(=O)NCCO)C(C)C)C(C)C)C(C)C [compound 1796] (For-VGA[dL]A[dL]V[dV]W[dL]W[dL]W[dV]W-NHCH2CH2OH) | 0 | - | 1.09
CC(C)C[C@@H](NC(=O)[C@H](C)NC(=O)CNC(=O)[C@@H](NC=O)C(C)C)C(=O)N[C@@H](C)C(=O)N[C@H](CC(C)C)C(=O)N[C@H](C(=O)N[C@@H](C(=O)N[C@@H](Cc1c[nH]c2ccccc12)C(=O)N[C@H](CC(C)C)C(=O)N[C@@H](Cc1c[nH]c2ccccc12)C(=O)N[C@@H](C(=O)N[C@@H](Cc1c[nH]c2ccccc12)C(=O)N[C@H](CC(C)C)C(=O)N[C@@H](Cc1c[nH]c2ccccc12)C(=O)NCCO)[C@H](C)O)[C@H](C)O)C(C)C [compound 1176] (For-VGA[dL]A[dL]V[dT]W[dL]W[dT]W[dL]W-NHCH2CH2OH) | 100 | - | 1.01
CC(C)C[C@@H](NC(=O)[C@H](C)NC(=O)CNC(=O)[C@@H](NC=O)C(C)C)C(=O)N[C@@H](C)C(=O)N[C@H](CC(C)C)C(=O)N[C@H](C(=O)N[C@H](CC(C)C)C(=O)N[C@@H](Cc1c[nH]c2ccccc12)C(=O)N[C@@H](C(=O)N[C@@H](Cc1c[nH]c2ccccc12)C(=O)N[C@H](CC(C)C)C(=O)N[C@@H](Cc1c[nH]c2ccccc12)C(=O)N[C@@H](C(=O)N[C@@H](Cc1c[nH]c2ccccc12)C(=O)NCCO)[C@H](C)O)C(C)C)C(C)C [compound 770] (For-VGA[dL]A[dL]V[dL]W[dV]W[dL]W[dT]W-NHCH2CH2OH) | 100 | - | 1.11
CC(C)C[C@@H](NC(=O)[C@H](C)NC(=O)[C@H](NC(=O)[C@H](C)NC(=O)CNC(=O)[C@@H](NC=O)C(C)C)C(C)C)C(=O)N[C@H](C(=O)N[C@H](CC(C)C)C(=O)N[C@@H](Cc1c[nH]c2ccccc12)C(=O)N[C@H](CC(C)C)C(=O)N[C@@H](Cc1c[nH]c2ccccc12)C(=O)N[C@@H](C(=O)N[C@@H](Cc1c[nH]c2ccccc12)C(=O)N[C@@H](C(=O)N[C@@H](Cc1c[nH]c2ccccc12)C(=O)NCCO)[C@H](C)O)[C@H](C)O)C(C)C [compound 4322] (For-VGA[dV]A[dL]V[dL]W[dL]W[dT]W[dT]W-NHCH2CH2OH) | 100 | - | 1.05
CC(C)C[C@@H](NC(=O)[C@H](C)NC(=O)CNC(=O)[C@@H](NC=O)C(C)C)C(=O)N[C@@H](C)C(=O)N[C@@H](C(=O)N[C@H](C(=O)N[C@@H](C(=O)N[C@@H](Cc1c[nH]c2ccccc12)C(=O)N[C@H](CC(C)C)C(=O)N[C@@H](Cc1c[nH]c2ccccc12)C(=O)N[C@@H](C(=O)N[C@@H](Cc1c[nH]c2ccccc12)C(=O)N[C@@H](C(=O)N[C@@H](Cc1c[nH]c2ccccc12)C(=O)NCCO)C(C)C)C(C)C)C(C)C)C(C)C)C(C)C [compound 5587] (For-VGA[dL]A[dV]V[dV]W[dL]W[dV]W[dV]W-NHCH2CH2OH) | 85.3 | ++ | 1.23
CC(C)C[C@@H](NC(=O)[C@H](C)NC(=O)CNC(=O)[C@@H](NC=O)C(C)C)C(=O)N[C@@H](C)C(=O)N[C@@H](C(=O)N[C@H](C(=O)N[C@@H](C(=O)N[C@@H](Cc1c[nH]c2ccccc12)C(=O)N[C@H](CC(C)C)C(=O)N[C@@H](Cc1c[nH]c2ccccc12)C(=O)N[C@@H](C(=O)N[C@@H](Cc1c[nH]c2ccccc12)C(=O)N[C@H](CC(C)C)C(=O)N[C@@H](Cc1c[nH]c2ccccc12)C(=O)NCCO)C(C)C)C(C)C)C(C)C)[C@H](C)O [compound 5555] (For-VGA[dL]A[dT]V[dV]W[dL]W[dV]W[dL]W-NHCH2CH2OH) | 100 | - | 1.22
CC(C)C[C@@H](NC(=O)[C@H](C)NC(=O)CNC(=O)[C@@H](NC=O)C(C)C)C(=O)N[C@@H](C)C(=O)N[C@H](CC(C)C)C(=O)N[C@H](C(=O)N[C@H](CC(C)C)C(=O)N[C@@H](Cc1c[nH]c2ccccc12)C(=O)N[C@H](CC(C)C)C(=O)N[C@@H](Cc1c[nH]c2ccccc12)C(=O)N[C@H](CC(C)C)C(=O)N[C@@H](Cc1c[nH]c2ccccc12)C(=O)N[C@@H](C(=O)N[C@@H](Cc1c[nH]c2ccccc12)C(=O)NCCO)[C@H](C)O)C(C)C [compound 5006] (For-VGA[dL]A[dL]V[dL]W[dL]W[dL]W[dT]W-NHCH2CH2OH) | 100 | - | 1.12
CC(C)C[C@@H](NC(=O)[C@H](C)NC(=O)CNC(=O)[C@@H](NC=O)C(C)C)C(=O)N[C@@H](C)C(=O)N[C@@H](C(=O)N[C@H](C(=O)N[C@@H](C(=O)N[C@@H](Cc1c[nH]c2ccccc12)C(=O)N[C@@H](C(=O)N[C@@H](Cc1c[nH]c2ccccc12)C(=O)N[C@H](CC(C)C)C(=O)N[C@@H](Cc1c[nH]c2ccccc12)C(=O)N[C@H](CC(C)C)C(=O)N[C@@H](Cc1c[nH]c2ccccc12)C(=O)NCCO)[C@H](C)O)C(C)C)C(C)C)C(C)C [compound 10674] (For-VGA[dL]A[dV]V[dV]W[dT]W[dL]W[dL]W-NHCH2CH2OH) | 87.3 | + | 1.08
CNC(=O)C[C@@H](NC(=O)[C@H](C)NC(=O)[C@@H](CC(C)C)NC(=O)[C@H](C)NC(=O)CNC(=O)[C@@H](NC=O)C(C)C)C(=O)N[C@H](C(=O)N[C@@H](C(=O)N[C@@H](Cc1c[nH]c2ccccc12)C(=O)N[C@H](CC(C)C)C(=O)N[C@@H](Cc1c[nH]c2ccccc12)C(=O)N[C@H](CC(C)C)C(=O)N[C@@H](Cc1c[nH]c2ccccc12)C(=O)N[C@@H](C(=O)N[C@@H](Cc1c[nH]c2ccccc12)C(=O)NCCO)C(C)C)C(C)C)C(C)C [compound 346] (For-VGA[dL]A[dD](NHMe)V[dV]W[dL]W[dL]W[dV]W-NHCH2CH2OH) | 100 | - | 1.12
